{"source": "PubChem BioAssay AID463199", "about": "(Broad Institute, 2010)", "note": "The source made the active and inactive calls.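 How the source made its calls: active means AC50, the dose giving half-maximal effect, exceeds a fixed cutoff for a compound that rescues yeast growth under heat; inactive means the rest, inconclusive results apart.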", "data": [{"system": "S. cerevisiae Burl-1 ts mutant growth, BacTiter-Glo, 38.5C 24 h", "assay": "growth induction of Burl-1 ts yeast mutant, dose response, counter-screen for SUMOylation pathway inhibitor project, whole organism, S. cerevisiae, luminescence (AID 463199)", "values": [{"compound": "C[C@@]12C(=O)Nc3ccc(F)cc3C(=O)N1[C@H]1c3ccccc3OC[C@@H]1[C@@H]2c1ccccc1", "AC50": "> 42 µM (inactive)"}, {"compound": "O=C(Nc1ccc(F)cc1)c1ccc(CSc2ccccc2)o1", "AC50": "> 42 µM (inactive)"}, {"compound": "Cc1ccc(SCCNC(=O)CN2C(=O)c3ccccc3S2(=O)=O)cc1", "AC50": "> 42 µM (inactive)"}, {"compound": "Cc1cc(C)c2c(=O)[nH]cnc2n1", "AC50": "> 42 µM (inactive)"}, {"compound": "CCC(C)[C@H]1COCCS(=O)(=O)N1Cc1ccc(C)cc1", "note": "(stereo not given in full)", "AC50": "> 42 µM (inactive)"}, {"compound": "COc1cccc(NC(=O)CNC(=O)c2ccc(C)cc2)c1", "AC50": "> 42 µM (inactive)"}, {"compound": "CCOc1ccc(-c2nc(C#N)c(N3CCOCC3)o2)cc1", "AC50": "> 42 µM (inactive)"}, {"compound": "O=C(O)c1ccc(/C=N/NC(=O)c2cc(-c3ccc4c5c(cccc35)CC4)n[nH]2)cc1", "AC50": "> 42 µM (inactive)"}, {"compound": "Cc1ccc(NC(=O)CN(C)C(=O)c2cccc(Br)c2)cc1", "AC50": "> 42 µM (inactive)"}, {"compound": "O=C(Nc1ccc(Cl)cc1)C1=Cc2ccccc2OC1", "AC50": "> 42 µM (inactive)"}, {"compound": "COc1cc(C(=O)NCCC2=CCCCC2)cc(OC)c1OC", "AC50": "> 42 µM (inactive)"}, {"compound": "COc1ccc(NC(=O)c2ccc(S(=O)(=O)N(C)c3ccccc3)cc2)cn1", "AC50": "> 42 µM (inactive)"}, {"compound": "C/C(CC(=O)Nc1cccnc1)=N\\NC(=O)C(C)Oc1ccc(Cl)cc1Cl", "note": "(stereo not given)", "AC50": "> 42 µM (inactive)"}, {"compound": "COc1cc(C(=O)COC(=O)c2cc([N+](=O)[O-])ccc2N2CCOCC2)ccc1OC(F)F", "AC50": "> 42 µM (inactive)"}, {"compound": "Cc1cccc2nc(COc3ccc4ccccc4c3Br)cn12", "AC50": "> 42 µM (inactive)"}, {"compound": "CCOC(=O)c1cnc2c(C)c(Cl)ccc2c1N1CCOCC1", "AC50": "> 42 µM (inactive)"}, {"compound": "CCOCCCNC(=O)C(c1ccc(OC)cc1)N(Cc1ccc2c(c1)OCO2)C(=O)CNC(C)=O", "note": "(stereo not given)", "AC50": "> 42 µM (inactive)"}, {"compound": "CCOc1ccccc1Nc1nnc(SCc2nnc(-c3cc(OC)c(OC)c(OC)c3)o2)s1", "AC50": "> 42 µM (inactive)"}, {"compound": "CCS(=O)(=O)N1CCC(C(=O)N2CCc3ccccc3C2)CC1", "AC50": "> 42 µM (inactive)"}, {"compound": "COc1ccc2c(c1)OC[C@H]1[C@H]2N2C(=O)c3cc(C)ccc3NC(=O)[C@@]2(C)[C@H]1c1ccccc1", "AC50": "> 42 µM (inactive)"}, {"compound": "COc1cc(C)c(Cl)c(C)c1S(=O)(=O)NCc1ccc2c(c1)OCO2", "AC50": "> 42 µM (inactive)"}, {"compound": "CCCCNC(=O)c1ccccc1NC(=O)C1=C(C)OCCS1", "AC50": "11.3 µM"}, {"compound": "S=C(Nc1ccc(Cl)cc1)N1CCN(Cc2ccccc2)CC1", "AC50": "> 42 µM (inactive)"}, {"compound": "O=C(COC(=O)c1ccccc1SCC(=O)N1CCCC1)NC1CCCCC1", "AC50": "> 42 µM (inactive)"}, {"compound": "COCCn1c(C)cc(C(=O)CN2C(=O)NC3(CCCCCCC3)C2=O)c1C", "AC50": "> 42 µM (inactive)"}, {"compound": "CCCNc1nc2ccccc2c(=O)[nH]1", "AC50": "> 42 µM (inactive)"}, {"compound": "O=C(NNC(=O)c1csc(N2CCOCC2)n1)c1ccc(Cl)nc1", "AC50": "> 42 µM (inactive)"}, {"compound": "NS(=O)(=O)c1cccc(NC(=O)c2cccnc2Oc2ccccc2)c1", "AC50": "> 42 µM (inactive)"}, {"compound": "CN(C)CCNC(=O)c1c(O)c2c([nH]c1=O)CCCC2", "AC50": "> 42 µM (inactive)"}, {"compound": "COc1ccc(C(=O)OCC(=O)c2ccccc2)cc1S(=O)(=O)N1CCOCC1", "AC50": "> 42 µM (inactive)"}, {"compound": "Cc1cc(C)n(-c2nc3ccccc3nc2N2CCN(C(=O)c3ccccc3)CC2)n1", "AC50": "> 42 µM (inactive)"}, {"compound": "O=C(CSc1nc2ccc(Nc3nc(N4CCOCC4)nc(N4CCOCC4)n3)cc2s1)N1CCOCC1", "AC50": "> 42 µM (inactive)"}, {"compound": "CCC(=O)N1CCc2cc(S(=O)(=O)CCC(=O)Nc3cccc(C)n3)ccc21", "AC50": "> 42 µM (inactive)"}, {"compound": "O=C(COC(=O)c1c(F)cccc1F)c1ccc[nH]1", "AC50": "> 42 µM (inactive)"}, {"compound": "CCOC(=O)c1oc2ccccc2c1COC(=O)CNC(=O)c1cccc(C)c1", "AC50": "> 42 µM (inactive)"}, {"compound": "Cc1cc(NC(=O)CSc2ncn(-c3ccccc3)n2)no1", "AC50": "> 42 µM (inactive)"}, {"compound": "COc1cccc(OC)c1C(=O)Nc1ccc2c(c1)n(C)c(=O)n2C", "AC50": "> 42 µM (inactive)"}, {"compound": "Cc1ccccc1-c1nnnn1C1CCS(=O)(=O)C1", "note": "(stereo not given)", "AC50": "> 42 µM (inactive)"}, {"compound": "O=C(NCc1cccnc1)C1CCN(S(=O)(=O)c2cccnc2)CC1", "AC50": "> 42 µM (inactive)"}, {"compound": "COc1ccc(OC)c(CCNC(=O)c2ccc3c(c2)N(Cc2ccc(F)cc2)CCS3)c1", "AC50": "> 42 µM (inactive)"}, {"compound": "CC(C)C(=O)NCCSc1c[nH]c2ccccc12", "AC50": "> 42 µM (inactive)"}, {"compound": "CCC1CCCCN1CCCNC(=O)C1CCC(CNS(=O)(=O)c2c(C)cc(C)cc2C)CC1", "note": "(stereo not given)", "AC50": "> 42 µM (inactive)"}, {"compound": "COc1ccc(-c2csc(NC(=O)CS(=O)(=O)c3ccc(F)cc3)n2)cc1OC", "AC50": "> 42 µM (inactive)"}, {"compound": "C/C(=N\\N=C(c1ccccc1)c1ccccc1)c1ccco1", "AC50": "> 42 µM (inactive)"}, {"compound": "C=CCOC(=O)C(C#N)c1nc2ccccc2nc1N1CCN(Cc2ccccc2)CC1", "note": "(stereo not given)", "AC50": "> 42 µM (inactive)"}, {"compound": "O=C(Cc1ccc(Cl)cc1)NC(=S)Nc1ccccc1N1CCOCC1", "AC50": "> 42 µM (inactive)"}, {"compound": "Fc1ccc(-c2cc(C(F)(F)F)nc(NCc3cccs3)n2)cc1", "AC50": "> 42 µM (inactive)"}, {"compound": "O=C(CSc1nc(=O)n2ccccc2n1)N1CCN(c2ccccc2)CC1", "AC50": "> 42 µM (inactive)"}, {"compound": "CC(C)C(OC(=O)CN1C(=O)COc2ccccc21)C(=O)NC1CCCC1", "note": "(stereo not given)", "AC50": "> 42 µM (inactive)"}, {"compound": "CC(=O)Nc1ccccc1C(=O)C(=O)Nc1ccc(C(=O)NCC2CCCO2)cc1", "note": "(stereo not given)", "AC50": "> 42 µM (inactive)"}, {"compound": "O=C(NCc1ccccn1)C1Nc2ccc(C(F)(F)F)cc2C2C=CCC12", "note": "(stereo not given)", "AC50": "> 42 µM (inactive)"}, {"compound": "Cc1ccc(S(=O)(=O)n2cccc2C)cc1", "AC50": "> 42 µM (inactive)"}, {"compound": "O=C(COC(=O)c1ccc([N+](=O)[O-])s1)c1ccc[nH]1", "AC50": "> 42 µM (inactive)"}, {"compound": "COc1ccc(N2CCN(C(=O)C3CCCN(S(=O)(=O)c4ccc5c(c4)oc(=O)n5C)C3)CC2)cc1", "note": "(stereo not given)", "AC50": "> 21 µM (inactive)"}, {"compound": "CN(C)S(=O)(=O)c1cccc(NC(=O)COc2nc3ccccc3nc2N2CCOCC2)c1", "AC50": "> 42 µM (inactive)"}, {"compound": "COc1ccc(CCNC(=O)C/C(C)=N/NC(=O)COc2ccc(C)cc2Br)cc1OC", "AC50": "> 42 µM (inactive)"}, {"compound": "Cc1ccc(N2C(=O)C3N=NN(CC(=O)N4N=C(c5cccc6ccccc56)CC4c4ccccc4)C3C2=O)cc1", "note": "(stereo not given)", "AC50": "> 21 µM (inactive)"}, {"compound": "CCOC(=O)c1sc2ncn(C(CC)C(=O)OCC)c(=O)c2c1C", "note": "(stereo not given)", "AC50": "> 42 µM (inactive)"}, {"compound": "CCOC(=O)c1sc(NC(=O)CSc2n[nH]c(-c3ccccc3)n2)c(C#N)c1C", "AC50": "> 42 µM (inactive)"}, {"compound": "COc1ccc(CCC(=O)NNC(=S)Nc2cccc(C(C)=O)c2)cc1", "AC50": "> 42 µM (inactive)"}, {"compound": "Cc1cc(=O)n2[nH]c(-c3ccc(F)cc3)nc2n1", "AC50": "> 42 µM (inactive)"}, {"compound": "Cc1cc([N+](=O)[O-])ccc1NC(=O)CSc1nccc(=O)[nH]1", "AC50": "> 42 µM (inactive)"}, {"compound": "Cc1ccc(-c2nn(-c3ccccc3)cc2C(=O)N2CCN(c3ccccn3)CC2)cc1", "AC50": "> 42 µM (inactive)"}, {"compound": "CCOC(=O)c1c(N)sc(C(=O)N2CCCC(C(N)=O)C2)c1C", "note": "(stereo not given)", "AC50": "> 42 µM (inactive)"}, {"compound": "CC(=O)c1c(N)[nH]c(-c2ccccc2)nc1=S", "AC50": "> 42 µM (inactive)"}, {"compound": "O=C1c2ccccc2C(=O)N1CCCCSc1nc2ccccc2c(=O)n1CCCN1CCOCC1", "AC50": "> 42 µM (inactive)"}, {"compound": "CCN(Cc1ccccc1)Cc1ccc(OCc2ccccc2)c(OC)c1", "AC50": "> 42 µM (inactive)"}, {"compound": "Cc1cc(C)n2nc(SCC(=O)NC3CCCC(C)C3C)nc2n1", "note": "(stereo not given)", "AC50": "> 42 µM (inactive)"}, {"compound": "COC(=O)c1cccc(NC(=O)c2cccnc2)c1", "AC50": "> 42 µM (inactive)"}, {"compound": "Cc1ccnc(NC(=O)CC(c2ccccc2)c2ccccc2)n1", "AC50": "> 42 µM (inactive)"}]}]}
